# Data taken from patent US4868182A, “Enhancement of prazosin” (Merrell Dow Pharmaceuticals Inc., priority 1988, dated 1989).
# Columns and labels:
# [1] = tested on: spontaneously hypertensive rats; test: lowering of systolic blood pressure in spontaneously hypertensive rats; type: in vivo, rat; details: SHR, oral, prazosin 0.1 mg/kg, alone or combined, mean ± SE
# [2] = molecular target: cyclic AMP-phosphodiesterase; test: in vitro inhibition of cyclic AMP-phosphodiesterase; type: biochemical; details: 50% inhibition of cyclic AMP-phosphodiesterase activity on 1 micromolar substrate
# Method: In general, the specific cyclic AMP-phosphodiesterase inhibitors of this invention, (i.e., the above-described cardiotonic agents) when conjunctively administered with prazosin to effect their synergistic activity, are administered at about the threshold dose to exert a blood pressure lowering effect, i.e., the minimum dose it takes to exert a statistically significant lowering of blood pressure. This threshold dose is readily determined by standard laboratory methodology. For example, assays such as the Spontaneously Hypertensive Rat and the Anesthesized Dog for testing blood pressure effects may readily be employed to determine the threshold dose of lowering blood pressure. The threshold dose may also be approximately calculated from an in vitro IC50 value. For this purpose the in vitro IC50 value is the micromolar quantity of compound needed to effect a 50% inhibition of the activity of cyclic AMP-phosphodiesterase on one (1) micromolar quantity of substrate. This IC50 value, when multiplied by the appropriate fraction for intravenous and oral administrations will yield the dosage range, in mg per kg of body weight, necessary to effect its synergism with prazosin.
# On the basis of spontaneously hypertensive rat data the multiplying factor is 1/10 to 1 for the intravenous dose and 1 to 10 for the oral dose. […]
Structure (SMILES),"systolic blood pressure change from control at 1 hour ([1]; Table 2, amrinone 55 mg/kg) [mmHg]","systolic blood pressure change from control at 2 hours ([1]; Table 2, amrinone 55 mg/kg) [mmHg]","systolic blood pressure change from control at 3 hours ([1]; Table 2, amrinone 55 mg/kg) [mmHg]","systolic blood pressure change from control at 4 hours ([1]; Table 2, amrinone 55 mg/kg) [mmHg]",IC50 [2] [µM],"systolic blood pressure change from control at 1 hour ([1]; Table 1, piroximone 25 mg/kg) [mmHg]","systolic blood pressure change from control at 2 hours ([1]; Table 1, piroximone 25 mg/kg) [mmHg]","systolic blood pressure change from control at 3 hours ([1]; Table 1, piroximone 25 mg/kg) [mmHg]","systolic blood pressure change from control at 4 hours ([1]; Table 1, piroximone 25 mg/kg) [mmHg]"
Nc1cc(-c2ccncc2)c[nH]c1=O [amrinone],-26 ± 6,-23 ± 5,-21 ± 8,-23 ± 7,,,,,
CCc1[nH]c(=O)[nH]c1C(=O)c1ccncc1 [piroximone],,,,,26,-23 ± 5,-17 ± 6,-18 ± 7,-20 ± 5
COc1cc2nc(N3CCN(C(=O)c4ccco4)CC3)nc(N)c2cc1OC [prazosin],-32 ± 3,-31 ± 4,-32 ± 4,-31 ± 4,,-40 ± 4,-40 ± 4,-42 ± 4,-35 ± 5
